According to US9174966B2, “Crystalline forms of 6-(1H-imidazol-1-yl)-2-phenylquinazoline” (ROTTAPHARM S.P.A., priority 2009, dated 2015):
Several values for one entry are separate records, joined by “and”; a condition that tells them apart may be missing. Equal values may be shown once. Entries after “also recorded” stand apart in the source; their conditions may differ. Read-outs that look alike come from different tables or passages of the source.

What was measured:
[1] = Stability to mechanical stress (milling, XRPD); assay type: physicochemical; conditions: Retsch MM 200 mill, 50 Hz, 5 min.
Procedure: 6-(1H-Imidazol-1-yl)-2-phenylquinazoline, polymorph A, was subjected to milling by means of a Retsch MM 200 mill, at 50 Hz for 5 min., and the product thus obtained was analysed by XRPD.
6-(1H-Imidazol-1-yl)-2-phenylquinazoline succinate form A, was subjected to milling by means of a Retsch MM 200 mill, at 50 Hz for 5 min., and the product thus obtained was subjected to XRPD analysis.
6-(1H-Imidazol-1-yl)-2-phenylquinazoline L-tartrate dihydrate, form A, was subjected to milling by means of a Retsch MM 200 mill, at 50 Hz for 5 min., and the product thus obtained was subjected to XRPD analysis.
6-(1H-Imidazol-1-yl)-2-phenylquinazoline maleate, form A, was subjected to milling by means of a Retsch MM 200 mill, at 50 Hz for 5 min., and the product thus obtained was subjected to XRPD analysis.

[2] = Thermal stability of the crystalline form (XRPD)
[3] = Dissolution rate in water at 37° C.; assay type: physicochemical; conditions: 2 mg of product in 40 mL of water at 37° C., 500 rpm, absorbance at 260 nm
Procedure: (§1) The sample of 6-(1H-imidazol-1-yl)-2-phenylquinazoline phosphate, form A, is stirred in an aqueous solution of NaCl 0.9%, at 500 rpm, so as to obtain a suspension (70 mg in 2 mL), for 24 hours at 37° C. […] The dissolution rate is measured by adding 2 mg of product to 40 mL of water at 37° C., stirring at 500 rpm, and measuring the absorbance at 260 nm every 0.05 min; the dissolution rate is found to be 1.9×10^−4 gr/min.

[4] = Hygroscopicity noted for the isolated crystalline product; assay type: physicochemical; conditions: as noted in the preparation example
[5] = Pharmacokinetics in rats, oral versus intravenous administration; assay type: in vivo; conditions: for bioavailability / clearance / half-life / Tmax: rat, blood; for bioavailability: OS 10 mg/Kg compared with IV 5 mg/kg, read-out: F (bioavailability); for half-life: read-out: T½; for Tmax: read-out: Tmax (converted)
Procedure: The samples are analysed by HPLC-MS to determine the content of 6-(1H-imidazol-1-yl)-2-phenylquinazoline, using diphenylhydramine hydrochloride as internal standard. The pharmacokinetic parameters measured are summarized hereinbelow: it is noted that, despite the fact that the polymorph under consideration is of low solubility, the bioavailability (F %) is entirely acceptable.
The pharmacokinetic parameters measured are summarized hereinbelow: it is noted that the salt under consideration has optimum bioavailability (F %). […]

[6] = Solubility in aqueous solution of NaCl 0.9% (UV absorbance at 260 nm); assay type: physicochemical; conditions: aqueous NaCl 0.9%, stirred 500 rpm, 24 hours at 37° C.; for solubility at 24 h: aqueous solution of NaCl 0.9%, 37 °C, saline or isotonic, thermodynamic from solid
Procedure: The solubility is 0.6 mg/mL. […]
The sample of 6-(1H-imidazol-1-yl)-2-phenylquinazoline phosphate, form A, is stirred in an aqueous solution of NaCl 0.9%, at 500 rpm, so as to obtain a suspension (50 mg in 2 mL), for 24 hours at 37° C.
as §1

[7] = Stability to moisture, DVS analysis (Differential Vapour Sorption); assay type: physicochemical; conditions: 25° C., hydration/dehydration cycle
Procedure: The sample placed on a microbalance is subjected, in a chamber of controlled humidity, at 25° C., to a cycle of hydration (increasing humidity, red line) and of dehydration (decreasing humidity, blue line).
The sample of 6-(1H-imidazol-1-yl)-2-phenylquinazoline succinate form A was subjected to DVS analysis (as described in Example 32).
The sample of 6-(1H-imidazol-1-yl)-2-phenylquinazoline L-tartrate dihydrate, form A, was subjected to DVS analysis.
The sample of 6-(1H-imidazol-1-yl)-2-phenylquinazoline maleate, form A, was subjected to DVS analysis.

[8] = 90° C., 12 hours (or at least 12 hours), XRPD
[9] = po, 10 mg/kg, OS (oral), 10 mg/Kg
[10] = heating at/to 90° C., time not stated, succinate

## O=C(O)/C=C\C(=O)O.c1ccc(-c2ncc3cc(-n4ccnc4)ccc3n2)cc1 [maleate form A, 6-(1H-imidazol-1-yl)-2-phenylquinazoline maleate]
[1]
  stability to milling: has not undergone any changes of crystalline form, but a slight increase in the presence of amorphous product is revealed, which recrystallizes within a few hours on standing
[2]; 40° C., 70% RH, 7 days, XRPD
  thermal stability of crystalline form: stable
[2]; [8]
  thermal stability of crystalline form: stable
[3]
  dissolution rate: 1.45×10^−3 gr/min
[4]
  hygroscopicity of the isolated product: non-hygroscopic
[5]; IV, 5 mg/kg
  V: 1.3 L/kg
[5]; OS (oral), 10 mg/Kg
  CL: 16 mL/min/kg
  V: 1.90 L/kg
[5]
  bioavailability: 100%
[5]; iv, 5 mg/kg
  clearance: 22 mL/min/kg
[5]; iv, 5 mg/kg, IV, 5 mg/kg
  half-life: 45.6 min
[5]; [9]
  Tmax: 60 min
  half-life: 45 min
[6]
  solubility at 24 h: 7900 µg/mL
[7]; maleate
  hygroscopicity (DVS): not hygroscopic in the range 0-85% RH; also recorded: not particularly hygroscopic even at values of greater than 85% RH

## c1ccc(-c2ncc3cc(-n4ccnc4)ccc3n2)cc1 [form B, 6-(1H-imidazol-1-yl)-2-phenylquinazoline monohydrate]
[2]; 40° C., RH 85%, 7 days, XRPD, monohydrate
  thermal stability of crystalline form: appearance of the signals of form E
[2]; heated to between 40° C. and 180° C.
  behaviour in variable temperature experiment (VT-XRPD): conversion into form E

## O.O=C(O)C(O)C(O)C(=O)O.c1ccc(-c2ncc3cc(-n4ccnc4)ccc3n2)cc1 [tartrate salt form C, 6-(1H-imidazol-1-yl)-2-phenylquinazoline (L)-tartrate monohydrate]
[2]; 40° C., RH 85%, 7 days, XRPD
  thermal stability of crystalline form: stable
[2]; [8]
  thermal stability of crystalline form: stable

## c1ccc(-c2ncc3cc(-n4ccnc4)ccc3n2)cc1 [form D, 6-(1H-imidazol-1-yl)-2-phenylquinazoline]
[2]; 40° C., RH 85%, 7 days, XRPD
  thermal stability of crystalline form: stable
[2]; 90° C., 3 hours, XRPD
  thermal stability of crystalline form: stable

## O=C(O)/C=C/C(=O)O.c1ccc(-c2ncc3cc(-n4ccnc4)ccc3n2)cc1 [fumarate form A, 6-(1H-imidazol-1-yl)-2-phenylquinazoline fumarate]
[2]; 40° C., RH 85%, 7 days, XRPD
  thermal stability of crystalline form: stable
[3]
  dissolution rate: 2.67×10^−5 gr/min
[4]
  hygroscopicity of the isolated product: non-hygroscopic
[6]
  solubility at 24 h: 1200 µg/mL

## O=C(O)C(O)C(O)C(=O)O.c1ccc(-c2ncc3cc(-n4ccnc4)ccc3n2)cc1 [tartrate salt form D, 6-(1H-imidazol-1-yl)-2-phenylquinazoline (L)-tartrate]
[2]; 40° C., RH 85%, 7 days, XRPD
  thermal stability of crystalline form: gives an XRPD corresponding to form A
[2]; [8]
  thermal stability of crystalline form: an amorphous product

## c1ccc(-c2ncc3cc(-n4ccnc4)ccc3n2)cc1 [form C, 6-(1H-imidazol-1-yl)-2-phenylquinazoline monohydrate]
[2]; 40° C., RH 85%, 5 days (at least 5 days for polymorph A), XRPD
  thermal stability of crystalline form: stable
[2]; 90° C., 3 hours, XRPD, monohydrate
  thermal stability of crystalline form: complete conversion into form E

## O=C(O)CCC(=O)O.c1ccc(-c2ncc3cc(-n4ccnc4)ccc3n2)cc1 [succinate salt form C, 6-(1H-imidazol-1-yl)-2-phenylquinazoline succinate]
[2]; [10]
  thermal stability of crystalline form: stable
[4]; succinate
  hygroscopicity of the isolated product: not hygroscopic

## O=C(O)CCC(=O)O.c1ccc(-c2ncc3cc(-n4ccnc4)ccc3n2)cc1 [succinate form A, 6-(1H-imidazol-1-yl)-2-phenylquinazoline succinate]
[1]
  stability to milling: has not undergone any changes of crystalline form and no presence of amorphous product is revealed
[2]; 40° C., RH 85%, 7 days, XRPD
  thermal stability of crystalline form: stable
[2]; [8]
  thermal stability of crystalline form: stable
[3]
  dissolution rate: 3.53×10^−5 gr/min
[4]; succinate
  hygroscopicity of the isolated product: non-hygroscopic
[5]; IV, 5 mg/kg
  V: 1.1 L/kg
[5]; OS (oral), 10 mg/Kg
  CL: 19 mL/min/kg
  V: 3.74 L/kg
[5]
  bioavailability: 65%
[5]; iv, 5 mg/kg
  clearance: 18 mL/min/kg
[5]; iv, 5 mg/kg, IV, 5 mg/kg
  half-life: 48.9 min
[5]; [9]
  Tmax: 60 min
  half-life: 48.6 min
[6]
  solubility at 24 h: 600 µg/mL
[7]; succinate
  hygroscopicity (DVS): not entirely hygroscopic; also recorded: only at about 90% RH is there a significant minimum absorption of water

## 6-(1H-imidazol-1-yl)-2-phenylquinazoline maleate hemihydrate [maleate salt form B]
[2]; 40° C., RH 85%, 7 days, XRPD
  thermal stability of crystalline form: partially converted into form A
[2]; [8]
  thermal stability of crystalline form: converted into form A

## O.O.O.O.O=C(O)C(O)C(O)C(=O)O.c1ccc(-c2ncc3cc(-n4ccnc4)ccc3n2)cc1 [tartrate salt form B, 6-(1H-imidazol-1-yl)-2-phenylquinazoline (L)-tartrate tetrahydrate]
[2]; 40° C., RH 85%, 7 days, XRPD
  thermal stability of crystalline form: stable
[2]; [8]
  thermal stability of crystalline form: gives rise to the amorphous form

## O=C(O)CCC(=O)O.c1ccc(-c2ncc3cc(-n4ccnc4)ccc3n2)cc1 [succinate salt form B, 6-(1H-imidazol-1-yl)-2-phenylquinazoline succinate]
[2]; [10]
  thermal stability of crystalline form: converted into form A
[4]; succinate
  hygroscopicity of the isolated product: non-hygroscopic

## O=C(O)C(O)C(O)C(=O)O.c1ccc(-c2ncc3cc(-n4ccnc4)ccc3n2)cc1 [tartrate form A, 6-(1H-imidazol-1-yl)-2-phenylquinazoline (L) tartrate dihydrate]
[1]
  stability to milling: has not undergone any changes of crystalline form, and a slight increase in the presence of amorphous product is revealed
[2]; 40° C., 70% RH, 7 days, XRPD
  thermal stability of crystalline form: stable
[2]; 90° C., 12 hours (or at least 12 hours), XRPD, tartrate dihydrate
  thermal stability of crystalline form: gives rise to the amorphous form
[3]
  dissolution rate: 1.04×10^−3 gr/min
[4]
  hygroscopicity of the isolated product: non-hygroscopic
[5]; IV, 5 mg/kg
  V: 1.4 L/kg
[5]; OS (oral), 10 mg/Kg
  CL: 17 mL/min/kg
  V: 5.47 L/kg
[5]
  bioavailability: 81%
[5]; iv, 5 mg/kg
  clearance: 23 mL/min/kg
[5]; iv, 5 mg/kg, IV, 5 mg/kg
  half-life: 47.7 min
[5]; [9]
  Tmax: 100 min
  half-life: 47.2 min
[6]
  solubility at 24 h: 2500 µg/mL
[7]; tartrate dihydrate
  hygroscopicity (DVS): not hygroscopic in the range 25-70% RH; also recorded: point of inflection at 75% RH; also recorded: highly hygroscopic only at values of greater than 80% RH

## Cl.c1ccc(-c2ncc3cc(-n4ccnc4)ccc3n2)cc1 [hydrochloride salt form B, 6-(1H-imidazol-1-yl)-2-phenylquinazoline hydrochloride]
[4]
  hygroscopicity of the isolated product: hygroscopic

## O=P(O)(O)O.c1ccc(-c2ncc3cc(-n4ccnc4)ccc3n2)cc1 [phosphate, form A, 6-(1H-imidazol-1-yl)-2-phenylquinazoline phosphate]
[3]; phosphate
  dissolution rate: 1.73×10^−4 gr/min and 1.9×10^−4 gr/min
[6]; phosphate
  solubility: 3600 µg/mL
[6]
  solubility at 24 h: 6200 µg/mL
